Measurements from patent US4871719A, “Composition for controlling parasites in productive livestock” (Ciba-Geigy Corporation, priority 1987, dated 1989).

System: L1 larvae of Lucilia sericata
Assay: Action against L1 larvae of Lucilia sericata
Type: in vivo
Conditions: 96 h, read-out: action (mortality count)
Method: 1 ml of an aqueous suspension of test compound is mixed with 3 ml of a special larval culture medium at about 50° C. such that a homogeneous composition containing 250 ppm or 125 ppm of active ingredient is obtained. About 30 Lucilia sericata larvae (L1) are put into each test tube sample. A mortality count is made after 4 days. The compounds of formula I, such as, for example, Nos. 3.2, 3.6, 3.7, 3.10, 3.34 and 3.38, achieved 100% action at 125 ppm.

Structure (SMILES) | mortality at 125 ppm [%]
COC1CC[C@@]2(O1)/C(C)=C/C[C@@H]1C[C@@H](C[C@]3(CC[C@H](C)[C@@H](C(C)C)O3)O1)OC(=O)[C@@H]1C=C(C)[C@@H](O)[C@H]3OC/C(=C\C=C\[C@@H]2C)[C@]31O (single isomer, unassigned) [Compound 3.2] | 100
CCCOC1CC[C@@]2(O1)/C(C)=C/C[C@@H]1C[C@@H](C[C@]3(CC[C@H](C)[C@@H](C(C)C)O3)O1)OC(=O)[C@@H]1C=C(C)[C@@H](O)[C@H]3OC/C(=C\C=C\[C@@H]2C)[C@]31O (single isomer, unassigned) [Compound 3.7] | 100
CC1=C[C@H]2C(=O)O[C@H]3C[C@@H](C/C=C(\C)[C@]4(CCC(OC(C)C)O4)[C@@H](C)/C=C/C=C4\CO[C@H]([C@@H]1O)[C@@]42O)O[C@@]1(CC[C@H](C)[C@@H](C(C)C)O1)C3 (single isomer, unassigned) [Compound 3.10] | 100
COCCOC1CC[C@@]2(O1)/C(C)=C/C[C@@H]1C[C@@H](C[C@]3(CC[C@H](C)[C@@H](C(C)C)O3)O1)OC(=O)[C@@H]1C=C(C)[C@@H](O)[C@H]3OC/C(=C\C=C\[C@@H]2C)[C@]31O (single isomer, unassigned) [Compound 3.34] | 100
CCOC1CC[C@@]2(O1)/C(C)=C/C[C@@H]1C[C@@H](C[C@]3(CC[C@H](C)[C@@H](C(C)C)O3)O1)OC(=O)[C@@H]1C=C(C)[C@@H](O)[C@H]3OC/C(=C\C=C\[C@@H]2C)[C@]31O (stereo partly drawn) [Compound 3.6] | 100
CCOCCOC1CC[C@@]2(O1)/C(C)=C/C[C@@H]1C[C@@H](C[C@]3(CC[C@H](C)[C@@H](C(C)C)O3)O1)OC(=O)[C@@H]1C=C(C)[C@@H](O)[C@H]3OC/C(=C\C=C\[C@@H]2C)[C@]31O (stereo partly drawn) [Compound 3.38] | 100
